Measured values from ChEMBL document CHEMBL1201862, “PubChem BioAssay data set” (2004).
Active and inactive are the calls of the source.

Tests used:
[1] = biological target: Cytochrome P450 2C9 (Homo sapiens, UniProt P11712); details: Potency
[2] = biological target: Acyl-homoserine lactone acylase PvdQ (Pseudomonas aeruginosa (strain LESB58), UniProt Q9I194); assay: P. aeruginosa PvdQ acylase inhibitors, dose response, biochemical, fluorescence, plate reader and imaging, cherry-picks (AID 493231)
[3] = biological target: T1, Aspartyl aminopeptidase (Plasmodium falciparum 3D7, UniProt Q8I2J3)
T1 sequence (Q8I2J3 whole entry): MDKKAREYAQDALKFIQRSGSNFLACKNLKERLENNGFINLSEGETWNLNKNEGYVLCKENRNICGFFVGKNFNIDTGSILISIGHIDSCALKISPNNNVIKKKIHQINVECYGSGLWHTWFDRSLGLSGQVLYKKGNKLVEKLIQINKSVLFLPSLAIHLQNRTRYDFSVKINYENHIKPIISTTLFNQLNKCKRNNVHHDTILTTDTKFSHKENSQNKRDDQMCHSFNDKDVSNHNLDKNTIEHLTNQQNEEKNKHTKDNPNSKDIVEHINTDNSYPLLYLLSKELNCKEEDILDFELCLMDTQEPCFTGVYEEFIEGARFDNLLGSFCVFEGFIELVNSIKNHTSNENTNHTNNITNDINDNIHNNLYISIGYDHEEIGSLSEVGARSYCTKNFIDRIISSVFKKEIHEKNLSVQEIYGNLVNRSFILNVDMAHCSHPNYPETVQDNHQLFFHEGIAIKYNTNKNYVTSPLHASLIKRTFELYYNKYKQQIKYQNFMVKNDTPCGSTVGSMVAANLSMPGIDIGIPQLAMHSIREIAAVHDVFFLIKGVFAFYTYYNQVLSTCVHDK

[4] = biological target: Procathepsin L (Homo sapiens, UniProt P07711)
[5] = biological target: Lysosomal acid glucosylceramidase (Homo sapiens, UniProt P04062); assay: Dose response cell-based high throughput screening assay to identify enhancers of beta-glucosidase activity. [Related pubchem assays: 784 ]; format: functional
[6] = inhibitors of firefly luciferase expression or activity, dose response, H4 neuroglioma cells, luminescence (AID 1990); format: functional, cell-based
[7] = luciferase reporter signal reduction – luminescence, H4-C neuroglioblastoma cells, dose response (AID 2458); format: functional, cell-based;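 also: H4 neuroglioblastoma cells stably carrying a luciferase reporter gene fusion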
[8] = cells; format: functional, cell-based
[9] = Luminescence Cell-Based Dose Response HTS to Identify Inhibitors of 5'UTR Stem-Loop Driven Prion Protein mRNA Translation in H4 Neuroglioblastoma Cells. [Related pubchem assays: 1827 (Project Summary), 1813 (Primary HTS)]; format: functional
[10] = inhibitors of SNCA 5'UTR-driven reporter translation, confirmation, H4 neuroglioma cells, luminescence (AID 1988); format: functional, cell-based
[11] = inhibitors of SNCA 5'UTR-driven translation, confirmation, luminescence, H4 neuroglioblastoma cells, dose confirmation (AID 2454); format: functional, cell-based;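 also: H4 neuroglioblastoma cells carrying an alpha-synuclein 5'UTR luciferase reporter; potency for inhibition of the luciferase signal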
[12] = cells; format: functional, cell-based; remark: listed apart in the source
[13] = biological target: T2, Nuclear receptor subfamily 0 group B member 1 (Homo sapiens, UniProt P51843); format: functional, cell-based;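 also: HEK293T cells transfected with SF-1 and DAX-1 plus StAR promoter luciferase reporter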
T2 sequence (P51843 whole entry): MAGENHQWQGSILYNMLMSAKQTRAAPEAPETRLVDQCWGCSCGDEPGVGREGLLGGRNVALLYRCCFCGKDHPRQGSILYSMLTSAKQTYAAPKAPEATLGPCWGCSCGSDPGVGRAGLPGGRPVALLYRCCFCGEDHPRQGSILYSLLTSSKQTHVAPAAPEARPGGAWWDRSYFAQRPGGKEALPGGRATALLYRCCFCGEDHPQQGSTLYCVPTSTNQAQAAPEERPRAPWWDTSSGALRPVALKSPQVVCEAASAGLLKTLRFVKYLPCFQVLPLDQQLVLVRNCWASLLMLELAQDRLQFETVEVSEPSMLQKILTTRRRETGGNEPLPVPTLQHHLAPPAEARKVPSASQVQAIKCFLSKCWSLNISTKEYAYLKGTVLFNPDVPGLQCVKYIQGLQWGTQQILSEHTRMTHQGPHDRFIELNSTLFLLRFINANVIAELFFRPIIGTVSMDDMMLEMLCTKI

[14] = biological target: Paired box protein Pax-8 (Homo sapiens, UniProt Q06710); assay: inhibitors of PAX8-driven TPO luciferase reporter, dose response, RMG-I cells, cherry-pick (AID 687027); format: functional, cell-based;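 also: luciferase reporter driven by Pax8 target thyroperoxidase promoter measured by SteadyGlo luminescence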
[15] = biological target: Melanin-concentrating hormone receptor 1 (Homo sapiens, UniProt Q99705); assay: Fluorescence-based counterscreen for antagonists of the G-protein coupled receptor 7 (GPR7): cell-based high throughput dose response assay to identify antagonists of the melanin-concentrating hormone receptor 1 (MCHR1).; format: functional
[16] = biological target: T3, Short transient receptor potential channel 4 (Mus musculus, UniProt Q9QUQ5); assay: mouse TRPC4 channel inhibitors, dose response, cell-based, HEK293 TRPC4/mu-opioid, Fluo-4 calcium (AID 434942); format: functional;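 also: potency of inhibitors blocking the TRPC4 calcium response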
T3 sequence (Q9QUQ5 whole entry): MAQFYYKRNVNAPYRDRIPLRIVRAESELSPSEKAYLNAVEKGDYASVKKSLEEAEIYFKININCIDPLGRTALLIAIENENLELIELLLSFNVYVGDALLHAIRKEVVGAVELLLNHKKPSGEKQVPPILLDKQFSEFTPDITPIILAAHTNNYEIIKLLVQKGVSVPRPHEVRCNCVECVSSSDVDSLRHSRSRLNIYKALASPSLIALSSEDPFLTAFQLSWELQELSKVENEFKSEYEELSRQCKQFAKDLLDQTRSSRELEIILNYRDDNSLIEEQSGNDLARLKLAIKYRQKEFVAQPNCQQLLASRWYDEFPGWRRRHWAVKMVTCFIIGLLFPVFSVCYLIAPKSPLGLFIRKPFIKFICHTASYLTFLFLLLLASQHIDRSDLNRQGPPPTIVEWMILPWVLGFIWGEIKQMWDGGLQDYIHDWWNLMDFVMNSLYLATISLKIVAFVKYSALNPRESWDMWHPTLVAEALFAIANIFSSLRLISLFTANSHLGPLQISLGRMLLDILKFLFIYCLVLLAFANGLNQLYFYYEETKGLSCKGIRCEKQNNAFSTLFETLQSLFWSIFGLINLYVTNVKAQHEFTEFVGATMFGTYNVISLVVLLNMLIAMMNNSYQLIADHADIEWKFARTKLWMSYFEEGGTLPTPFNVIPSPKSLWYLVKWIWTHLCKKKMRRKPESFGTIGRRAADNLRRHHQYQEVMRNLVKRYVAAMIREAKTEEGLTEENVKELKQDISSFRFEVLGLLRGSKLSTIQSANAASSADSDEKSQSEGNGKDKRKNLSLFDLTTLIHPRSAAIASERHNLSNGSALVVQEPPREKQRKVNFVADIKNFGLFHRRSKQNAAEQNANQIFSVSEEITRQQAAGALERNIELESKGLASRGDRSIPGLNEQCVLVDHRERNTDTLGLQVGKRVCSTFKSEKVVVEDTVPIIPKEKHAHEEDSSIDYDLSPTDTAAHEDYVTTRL

[17] = biological target: Cytochrome P450 2C19 (Homo sapiens, UniProt P33261); assay: qHTS Assay for Inhibitors and Substrates of Cytochrome P450 2C19. [Related pubchem assays: 410 ]; format: ADME; details: read-out: Potency
[18] = biological target: Neurotensin receptor type 1 (Homo sapiens, UniProt P30989); format: functional;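 also: Image-based confirmatory dose-response assay measuring agonist activity at NTR1; NTR1-expressing U2OS osteosarcoma cells imaged for beta-arrestin GFP spot formation; agonist potency where compounds increase beta-arrestin recruitment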
[19] = biological target: T4, Low molecular weight phosphotyrosine protein phosphatase (Homo sapiens, UniProt P24666); format: functional; details: read-out: IC50_Mean;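 also: Dose-response confirmation assay measuring inhibition of LMPTP enzyme activity by fluorescence intensity read-out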
T4 sequence (P24666 whole entry): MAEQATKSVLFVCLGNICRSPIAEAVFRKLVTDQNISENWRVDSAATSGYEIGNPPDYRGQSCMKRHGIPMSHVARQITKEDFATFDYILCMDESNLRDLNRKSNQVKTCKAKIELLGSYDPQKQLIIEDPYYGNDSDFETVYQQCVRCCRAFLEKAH

[20] = biological target: Large T antigen (Simian virus 40, UniProt P03070); format: functional, Betapolyomavirus macacae;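 also: Confirmatory-stage PubChem screen for compounds that inhibit SV40 T antigen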
[21] = biological target: Hexokinase (Trypanosoma brucei, UniProt Q38C41); assay: Confirmation assay for inhibitors of Trypanosoma brucei hexokinase 1-Analogue-first series. [Related pubchem assays (depositor defined):AID1430, AID1632, AID2516, AID2560, AID2579, AID2600, AID449725, AID492951]; format: functional
[22] = Luminescence Cell-Based Dose Retest to Confirm Inhibitors of Cancer Stem Cells. [Related pubchem assays (depositor defined):AID2717, AID2721]; format: functional; details: Homo sapiens
[23] = biological target: T5, Microphthalmia-associated transcription factor (Homo sapiens, UniProt O75030); assay: TRPM1 promoter luciferase signal decrease, dose response, MITF inhibitor project, cell-based, SK-MEL-5, cherry-picked, set 3 (AID 493073); format: functional
T5 sequence (O75030 whole entry): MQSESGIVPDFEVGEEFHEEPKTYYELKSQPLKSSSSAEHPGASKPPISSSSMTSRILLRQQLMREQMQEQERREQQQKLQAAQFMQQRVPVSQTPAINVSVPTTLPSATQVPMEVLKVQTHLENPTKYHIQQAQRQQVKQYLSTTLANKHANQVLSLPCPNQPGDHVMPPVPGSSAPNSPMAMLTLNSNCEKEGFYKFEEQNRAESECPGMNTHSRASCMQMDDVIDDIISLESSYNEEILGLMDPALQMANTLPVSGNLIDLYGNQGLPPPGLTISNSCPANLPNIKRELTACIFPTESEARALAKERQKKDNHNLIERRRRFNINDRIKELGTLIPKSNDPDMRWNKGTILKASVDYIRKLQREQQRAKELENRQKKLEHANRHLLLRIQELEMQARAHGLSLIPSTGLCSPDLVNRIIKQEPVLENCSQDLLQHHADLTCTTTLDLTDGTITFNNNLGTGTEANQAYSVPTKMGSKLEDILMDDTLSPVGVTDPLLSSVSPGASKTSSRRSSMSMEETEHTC

Neurotensin receptor type 1, sequence (P30989 whole entry): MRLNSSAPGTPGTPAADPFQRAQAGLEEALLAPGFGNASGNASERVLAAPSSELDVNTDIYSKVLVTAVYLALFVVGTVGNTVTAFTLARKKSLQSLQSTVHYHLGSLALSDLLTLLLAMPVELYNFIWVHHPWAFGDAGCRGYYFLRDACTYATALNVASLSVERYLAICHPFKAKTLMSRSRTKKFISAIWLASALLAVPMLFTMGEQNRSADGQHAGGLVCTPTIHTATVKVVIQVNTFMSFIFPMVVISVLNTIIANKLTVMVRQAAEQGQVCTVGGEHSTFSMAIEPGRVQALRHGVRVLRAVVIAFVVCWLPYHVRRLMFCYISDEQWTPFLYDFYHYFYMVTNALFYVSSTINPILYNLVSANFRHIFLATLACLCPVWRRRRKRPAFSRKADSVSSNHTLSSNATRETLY
Procathepsin L, sequence (P07711 whole entry): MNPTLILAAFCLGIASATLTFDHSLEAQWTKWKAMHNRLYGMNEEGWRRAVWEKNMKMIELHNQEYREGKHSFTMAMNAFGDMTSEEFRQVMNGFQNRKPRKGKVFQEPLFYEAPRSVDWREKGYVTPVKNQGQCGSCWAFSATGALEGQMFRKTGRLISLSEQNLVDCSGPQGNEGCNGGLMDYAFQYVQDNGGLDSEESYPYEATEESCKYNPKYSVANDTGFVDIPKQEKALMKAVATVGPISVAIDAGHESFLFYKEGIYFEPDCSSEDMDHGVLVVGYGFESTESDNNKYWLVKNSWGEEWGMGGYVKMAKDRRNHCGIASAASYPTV
Hexokinase, sequence (Q38C41 whole entry): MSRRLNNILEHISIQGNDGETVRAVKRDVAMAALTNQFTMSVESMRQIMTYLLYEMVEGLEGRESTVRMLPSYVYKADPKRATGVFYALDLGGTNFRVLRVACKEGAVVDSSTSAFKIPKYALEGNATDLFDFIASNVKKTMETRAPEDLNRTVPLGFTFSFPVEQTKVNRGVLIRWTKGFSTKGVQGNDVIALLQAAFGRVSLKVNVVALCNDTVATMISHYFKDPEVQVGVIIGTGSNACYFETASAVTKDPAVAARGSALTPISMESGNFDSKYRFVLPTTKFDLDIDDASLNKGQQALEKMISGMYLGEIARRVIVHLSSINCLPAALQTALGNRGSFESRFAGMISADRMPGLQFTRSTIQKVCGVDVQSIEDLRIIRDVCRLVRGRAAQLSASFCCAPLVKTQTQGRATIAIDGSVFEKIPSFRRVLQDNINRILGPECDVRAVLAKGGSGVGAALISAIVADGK
Melanin-concentrating hormone receptor 1, sequence (Q99705 whole entry): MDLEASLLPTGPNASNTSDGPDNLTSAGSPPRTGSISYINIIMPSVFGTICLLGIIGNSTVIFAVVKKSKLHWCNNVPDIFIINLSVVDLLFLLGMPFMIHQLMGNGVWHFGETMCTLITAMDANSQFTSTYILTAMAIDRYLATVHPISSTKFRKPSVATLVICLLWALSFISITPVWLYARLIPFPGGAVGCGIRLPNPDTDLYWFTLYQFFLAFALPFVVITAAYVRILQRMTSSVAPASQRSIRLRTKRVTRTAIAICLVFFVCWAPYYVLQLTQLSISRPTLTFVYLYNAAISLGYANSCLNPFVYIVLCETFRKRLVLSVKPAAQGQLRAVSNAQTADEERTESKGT
Acyl-homoserine lactone acylase PvdQ, sequence (Q9I194 24-193 limits assumed): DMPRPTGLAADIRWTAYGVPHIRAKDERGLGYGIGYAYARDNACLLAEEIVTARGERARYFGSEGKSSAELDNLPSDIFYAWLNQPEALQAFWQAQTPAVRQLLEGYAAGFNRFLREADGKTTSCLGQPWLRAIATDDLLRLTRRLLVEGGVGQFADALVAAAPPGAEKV
Acyl-homoserine lactone acylase PvdQ, sequence (Q9I194 217-762 limits assumed): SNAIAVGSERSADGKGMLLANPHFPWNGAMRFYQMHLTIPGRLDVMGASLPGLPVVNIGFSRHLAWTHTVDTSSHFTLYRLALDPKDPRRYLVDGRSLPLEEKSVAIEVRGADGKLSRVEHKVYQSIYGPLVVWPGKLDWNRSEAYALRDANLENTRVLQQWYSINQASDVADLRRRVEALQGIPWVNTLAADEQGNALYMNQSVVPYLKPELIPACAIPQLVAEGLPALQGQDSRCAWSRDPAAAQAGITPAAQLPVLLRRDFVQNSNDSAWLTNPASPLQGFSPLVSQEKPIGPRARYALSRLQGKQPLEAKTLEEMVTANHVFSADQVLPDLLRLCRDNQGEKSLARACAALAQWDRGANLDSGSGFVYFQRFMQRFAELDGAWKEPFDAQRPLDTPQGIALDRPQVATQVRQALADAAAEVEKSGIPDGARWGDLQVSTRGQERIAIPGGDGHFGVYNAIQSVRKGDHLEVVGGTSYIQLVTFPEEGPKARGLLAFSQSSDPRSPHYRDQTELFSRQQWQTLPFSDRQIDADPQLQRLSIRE
Cytochrome P450 2C9, sequence (P11712 whole entry): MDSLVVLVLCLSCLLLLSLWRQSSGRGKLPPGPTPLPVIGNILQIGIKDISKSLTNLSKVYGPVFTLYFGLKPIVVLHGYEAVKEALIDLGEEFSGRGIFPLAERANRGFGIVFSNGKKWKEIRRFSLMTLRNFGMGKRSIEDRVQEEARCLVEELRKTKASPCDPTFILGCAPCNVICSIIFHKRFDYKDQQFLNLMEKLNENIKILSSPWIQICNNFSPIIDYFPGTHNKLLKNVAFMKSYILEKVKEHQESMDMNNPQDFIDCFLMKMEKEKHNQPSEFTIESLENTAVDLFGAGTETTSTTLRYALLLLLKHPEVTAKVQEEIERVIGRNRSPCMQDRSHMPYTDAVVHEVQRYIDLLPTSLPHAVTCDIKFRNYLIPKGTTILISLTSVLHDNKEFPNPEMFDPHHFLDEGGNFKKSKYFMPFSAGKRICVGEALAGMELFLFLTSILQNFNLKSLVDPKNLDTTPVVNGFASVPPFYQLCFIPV
Lysosomal acid glucosylceramidase, sequence (P04062 whole entry): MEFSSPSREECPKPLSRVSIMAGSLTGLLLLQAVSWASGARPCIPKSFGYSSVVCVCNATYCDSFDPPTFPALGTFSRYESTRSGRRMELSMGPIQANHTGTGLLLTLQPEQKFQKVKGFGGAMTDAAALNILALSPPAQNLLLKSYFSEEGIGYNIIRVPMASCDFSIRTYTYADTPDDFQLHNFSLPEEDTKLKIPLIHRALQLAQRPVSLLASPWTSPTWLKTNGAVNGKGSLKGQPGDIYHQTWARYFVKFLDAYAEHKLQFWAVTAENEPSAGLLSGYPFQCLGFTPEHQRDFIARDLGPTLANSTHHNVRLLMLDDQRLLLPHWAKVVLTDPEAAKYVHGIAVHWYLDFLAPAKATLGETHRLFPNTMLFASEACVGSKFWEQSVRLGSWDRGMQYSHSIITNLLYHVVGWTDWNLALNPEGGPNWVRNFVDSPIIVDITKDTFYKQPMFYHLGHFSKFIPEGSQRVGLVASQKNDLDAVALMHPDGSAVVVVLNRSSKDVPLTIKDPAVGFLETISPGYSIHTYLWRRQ
Paired box protein Pax-8, sequence (Q06710 whole entry): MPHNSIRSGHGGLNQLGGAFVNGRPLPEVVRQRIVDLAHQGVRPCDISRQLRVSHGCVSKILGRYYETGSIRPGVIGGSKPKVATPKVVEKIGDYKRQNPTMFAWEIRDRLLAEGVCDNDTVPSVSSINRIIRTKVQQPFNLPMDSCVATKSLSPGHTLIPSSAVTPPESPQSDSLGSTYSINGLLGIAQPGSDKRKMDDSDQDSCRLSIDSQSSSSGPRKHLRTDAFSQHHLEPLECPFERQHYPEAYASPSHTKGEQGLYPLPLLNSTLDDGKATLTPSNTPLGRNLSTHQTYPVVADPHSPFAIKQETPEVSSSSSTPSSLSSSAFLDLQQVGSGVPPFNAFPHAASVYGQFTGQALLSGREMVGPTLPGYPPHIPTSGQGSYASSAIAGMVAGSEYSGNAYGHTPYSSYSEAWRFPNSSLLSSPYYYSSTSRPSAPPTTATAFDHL
Cytochrome P450 2C19, sequence (P33261 whole entry): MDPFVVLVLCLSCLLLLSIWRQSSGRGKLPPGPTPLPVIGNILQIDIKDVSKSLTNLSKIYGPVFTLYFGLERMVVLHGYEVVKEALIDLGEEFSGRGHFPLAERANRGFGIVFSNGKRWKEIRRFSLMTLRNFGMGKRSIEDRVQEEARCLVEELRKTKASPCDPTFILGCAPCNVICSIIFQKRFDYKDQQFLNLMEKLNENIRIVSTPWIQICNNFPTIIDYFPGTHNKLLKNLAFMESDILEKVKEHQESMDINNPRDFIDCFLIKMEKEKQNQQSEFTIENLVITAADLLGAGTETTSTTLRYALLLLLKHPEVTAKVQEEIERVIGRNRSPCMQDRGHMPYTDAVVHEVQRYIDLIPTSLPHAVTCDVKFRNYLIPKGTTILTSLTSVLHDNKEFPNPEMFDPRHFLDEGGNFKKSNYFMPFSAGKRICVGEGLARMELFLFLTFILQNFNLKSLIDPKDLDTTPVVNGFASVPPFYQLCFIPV
Large T antigen, sequence (P03070 whole entry): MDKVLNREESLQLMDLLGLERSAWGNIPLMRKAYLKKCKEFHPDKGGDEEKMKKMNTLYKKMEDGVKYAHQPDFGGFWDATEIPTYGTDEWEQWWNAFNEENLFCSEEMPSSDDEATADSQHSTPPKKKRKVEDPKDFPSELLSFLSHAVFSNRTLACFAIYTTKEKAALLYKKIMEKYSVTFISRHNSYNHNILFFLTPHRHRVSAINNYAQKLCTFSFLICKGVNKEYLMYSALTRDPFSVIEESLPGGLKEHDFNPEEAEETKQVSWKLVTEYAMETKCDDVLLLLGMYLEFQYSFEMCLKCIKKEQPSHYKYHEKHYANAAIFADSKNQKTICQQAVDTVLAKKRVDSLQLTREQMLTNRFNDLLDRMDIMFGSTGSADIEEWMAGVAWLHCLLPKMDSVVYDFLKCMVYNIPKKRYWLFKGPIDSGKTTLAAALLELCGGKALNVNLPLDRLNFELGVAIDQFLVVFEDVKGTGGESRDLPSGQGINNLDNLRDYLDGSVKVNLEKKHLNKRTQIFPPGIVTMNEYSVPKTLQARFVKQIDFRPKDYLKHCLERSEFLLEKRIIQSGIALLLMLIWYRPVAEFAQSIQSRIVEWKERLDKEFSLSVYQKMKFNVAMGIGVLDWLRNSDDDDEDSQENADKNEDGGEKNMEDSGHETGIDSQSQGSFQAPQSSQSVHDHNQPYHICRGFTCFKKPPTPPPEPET

With CCOC(c1cc(OC)cc([N+](=O)[O-])c1OC)C(C)C(OC)[C@@H](C)/C=C/CC(=O)OC (some centres not stated) the AC50 [1] was 2.51 µM (inconclusive).
For CC(C)Oc1ccc(CC2CCC(=O)N(C)C2=O)cc1 (configuration not stated), the AC50 [2] was 26.2 µM (active).
In the case of O=C(CSc1nn(-c2ccccc2)c(=S)s1)Nn1cnnc1, the IC50 [3] is reported as 1.61 µM (active) and the IC50 [4] is reported as > 59.6 µM (not active).
In the case of CCOc1ccccc1C1C(C(=O)Nc2ccccc2OC)=C(C)Nc2nnnn21 (configuration not stated), the EC50 [5] is reported as > 10 µM (not active).
With O=C(CSc1nnc[nH]1)Nc1nc(-c2ccccc2)ns1 the IC50 [3] was 0.442 µM (active) and the IC50 [4] was > 59.6 µM (not active).
For COC(=O)CN1CCN(C(=O)c2ccc(F)cc2)c2ccccc2C1, the EC50 [5] was > 50 µM (not active).
With Cc1cc(C)c2nc(SCC(=O)N3CC(=O)Nc4ccccc43)c(C#N)cc2c1 the EC50 [6] was 0.13 µM (active), the EC50 [7] was 0.665 µM (active) and the EC50 [8] was > 12 µM (not active). For the same compound, the EC50 [9] was 0.217 µM (active), the EC50 [10] was < 0.1 µM (active) and the EC50 [11] was > 12 µM (inconclusive). The IC50 [12] was > 67.5 µM (inactive), the IC50 [13] was > 67.5 µM (inactive) and the AC50 [14] was 1.25 µM (active).
With COc1ccccc1C1CC(c2ccc(Cl)cc2)N=C2N=CNN21 (configuration not stated) the IC50 [15] was 24.5 µM (not active).
For CC(C)Cc1nc(N2CCOCC2)c(C#N)c2c1CCC2, the EC50 [16] was 6.68 µM (active).
In the case of C=C(C)C(O)/C=C/c1ccc(OC)cc1 (configuration not stated), the AC50 [17] is reported as 0.501 µM (inconclusive) and the AC50 [1] is reported as 2.51 µM (inconclusive).
In the case of COc1ccc(-c2csc(N3CCN(c4cc(C)nc5ccccc45)CC3)n2)cc1OC, the EC50 [18] is reported as 21.4 µM (inactive) and the IC50 [19] is reported as 11.8 µM (active).
With Cc1cc(C(=O)N2CCC(Cc3ccccc3)CC2)ccc1[N+](=O)[O-] the IC50 [15] was 16.6 µM (not active).
For COc1ccc(-c2ccc(OC(=O)NC3CCS(=O)(=O)C3)cc2)cc1 (configuration not stated), the IC50 [20] was 9.45 µM (active) and the AC50 [2] was 30.7 µM (active).
In the case of O=C(Nc1cc(Cl)ccc1C(=O)O)c1ccccc1, the IC50 [21] is reported as > 25 µM (inactive).
With O=c1c2cc(F)ccc2sn1-c1ccc(Cl)cc1 the IC50 [21] was 3.01 µM (active).
In the case of O=C(/C=C\c1ccccc1)NCC(=O)N/N=C/c1ccc(O)cc1O, the AC50 [22] is reported as 11.1 µM (active), the EC50 [18] is reported as 23.1 µM (inactive) and the AC50 [23] is reported as 7.99 µM (active).
With CCOc1ccc(Br)cc1/C=N/O the EC50 [16] was 5.96 µM (active).
